Experimental findings from PMC9063808, “Structural insights into the calcium dependence of Stig cyclases” (RSC Advances, 2019) are described below.

The target in this assay is T1, FamC1 (Fischerella ambigua, UniProt A0A076N4W8, N137A).
T1 construct: gene ambU4; recombinant; homodimer in crystal
The experiment in a line: X-ray crystallography, […] A. Conditions: Ca1 site empty, Ca2 bound; substrate-binding pocket; ligand came from the crystallization solution, not added on purpose.

T1 sequence (A0A076N4W8 entry or part of it N137A): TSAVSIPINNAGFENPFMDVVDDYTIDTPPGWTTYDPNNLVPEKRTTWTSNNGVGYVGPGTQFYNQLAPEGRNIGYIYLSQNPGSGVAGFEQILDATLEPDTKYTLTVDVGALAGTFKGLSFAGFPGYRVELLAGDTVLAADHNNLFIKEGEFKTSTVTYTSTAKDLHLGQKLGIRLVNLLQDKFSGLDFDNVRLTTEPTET

For the molecule `N=C(N)NCCC[C@@H]1NC(=O)[C@H]2CCCN2C1=O` [CI-4], the “X-ray crystallography, 1.48 A” value is “The N137A crystal was grown in the same crystallization condition and one molecule of CI-4”.
